These results are taken from patent US8153791B2, “Substituted pyrimidinyl oxime kinase inhibitors” (Janssen Pharmaceutica N.V., priority 2005, dated 2012).

A word on the IC50: it is the concentration that inhibits the measured activity by half.

One experiment addresses T1, EGFR (Homo sapiens, UniProt P00533).
T1 construct: The intracellular portion of EGFR started at nucleotide 2189 (corresponding to amino acid 667) and ended at the termination codon; made in house; host or cells: Sf9 insect cells (baculovirus)
Kind of experiment: EGFR Kinase Assay.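 Further: recombinant GST-tagged EGFR expressed in Sf9 cells, phosphorylating biotinylated polyGluTyr with γ-33P ATP on Streptavidin Flashplates, 1 h at 30 °C, scintillation counting, inhibition relative to plate maximum and minimum signals.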 Type of experiment: biochemical.

Experiment [1] concerns SK-OV-3 ovarian carcinoma. Kind of experiment: In vitro cell proliferation inhibition, SK-OV-3. Type of experiment: cell-based. Conditions: Homo sapiens; SK-OV-3 cells, 14C-thymidine incorporation. The source says:
(§1) The ability of a test compound to inhibit unregulated in vitro cell proliferation may be determined by measuring incorporation of ^14C-labelled thymidine into newly synthesized DNA within cell lines derived from carcinomas originating from several tissues. Accordingly, the effect of a test compound on proliferation of cells with a variety of phenotypes may be determined.
(§2) Carcinoma cell lines used include the HeLa cervical adenocarcinoma from the American Type Culture Collection (ATCC Cat. #CCL2), SK-OV-3 ovarian carcinoma (ATCC Cat. #HTB-77), MCF-7 breast carcinoma (ATCC Cat. #HTB-22), BT474 breast carcinoma (ATCC Cat. #HTB-20), SKBR3 breast carcinoma (ATCC Cat. #HTB-30), A431 epidermoid carcinoma (ATCC Cat. #CRL-1555) and NCI-N87 gastric carcinoma (ATCC Cat. #CRL-5822).
(§3) The carcinoma cells are trypsinized and counted. The cells (3000-8000 count) are added to each well of a 96-well CytoStar tissue culture treated scintillating microplate (Amersham #RPNQ0160) in complete medium (100 μL) and the plate is then incubated in complete medium for 24 hrs at 37° C. in an inert atmosphere containing 5% CO2.
(§4) Test compound (1 μL) in 100% DMSO is added to the plate test-wells with DMSO only added to control-wells. The plate is incubated in complete medium for a second 24 hr period at 37° C. in an atmosphere containing 5% CO2.
(§5) An aliquot of a solution of Methyl ^14C-thymidine (56 mC/mmol) (NEN #NEC568 or Amersham #CFA532) and complete medium (20 μL to provide 0.2 μCi/well) is then added to each well and the plate is incubated for a third 24 hr period at 37° C. in an atmosphere containing 5% CO2.
(§6) The plate contents are then discarded, the plate is washed twice with PBS (200 μL) and then PBS (200 μL) is added to each well. The plate is sealed and the degree of methyl ^14C-thymidine incorporation is quantified on a Packard Top Count.
(§7) Cell proliferation of the Hela cell line was measured using the ATP-Lite method as described in the ATP Lite Kit (Perkin-Elmer Kit Number 6106941) or the C^14 method as described above. Cell proliferation of the other cell lines was measured using the C^14 method.
(§8) The term “NT” means that the compound indicated was not tested in a particular cell line. The lack of such testing is not intended to imply a belief that the compound is not otherwise active in a particular cell line or any other cell line not tested.
A general note: Incorporation of labelled thymidine or its analogues reports DNA synthesis.

The next experiment deals with MCF-7 breast carcinoma. Kind of experiment: In vitro cell proliferation inhibition, MCF-7. Type of experiment: cell-based. The note with it: Homo sapiens, MCF7; MCF-7 cells, 14C-thymidine incorporation.
Text: as §1, §2, §3, §4, §5, §6, §7, §8

The test system of experiment [2] is NCI-N87 gastric carcinoma. Nature of the experiment: In vitro cell proliferation inhibition, NCI-N87. Type of experiment: cell-based. Conditions: Homo sapiens, NCI-N87; N87 cells, 14C-thymidine incorporation; read-out: IC50 N87.
Text: as §1, §2, §3, §4, §5, §6, §7, §8

Another experiment relates to SKBR3 breast carcinoma. Nature of the experiment: In vitro cell proliferation inhibition, SKBR3. Type of experiment: cell-based. Conditions: Homo sapiens, SK-BR-3; SKBR3 cells, 14C-thymidine incorporation; read-out: IC50 SKBR3.
Text: as §1, §2, §3, §4, §5, §6, §7, §8

Experiment [3] deals with A431 epidermoid carcinoma cells. Kind of experiment: A431 Human Tumor Xenograft Model. Type of experiment: in vivo, nu/nu mice. Conditions: treatment groups 5-10, 100 mg/kg oral once daily for 30 days. The source says:
The A431 epidermoid carcinoma cell line overexpresses EGFR, activating signaling pathways responsible for driving the proliferation, invasion and survival of cancer cells and forming tumors in nude mice (Giard D J, Aaronson S A, Todaro G J, Arnstein P, Kersey J H, Dosik H, Parks W P, In vitro cultivation of human tumors: establishment of cell lines derived from a series of solid tumors, J. Natl. Cancer Inst., 1973, 51, 1417-1423; and, Kawamoto T, Sato J D, Le A, Polikoff J, Sato G H, Mendelsohn J, Growth stimulation of A431 cells by epidermal growth factor: identification of high-affinity receptors for epidermal growth factor by an anti-receptor monoclonal antibody, Proc. Natl. Acad. Sci. USA, 1983, 80, 1337-1341).
Female nu/nu mice (Charles River; 8 to 9 weeks of age) were implanted subcutaneously in the flank with 4×10^6 A431 epidermoid carcinoma cells (obtained from the American Type Culture Collection, ATCC Cat. #CRL-1555). Animals were weighed twice weekly during the study and examined frequently.
Tumor size was monitored twice weekly and then daily as the neoplasms reached the target weight range (about 75 mg). Animals were pair-matched when tumors were in the 62 to 126 mg range (group mean tumor size: 70 to 74 mg). Estimated tumor weight was calculated using the formula of Example 4.
A test compound was orally administered daily in the test treatment group after the tumor reached the target weight. For treatment groups 1 and 2, each dose of test compound was administered once daily for 25 days. For treatment group 3, each dose of test compound was administered twice daily for 25 days. For treatment group 4, the test compound was administered twice daily for 30 days. For treatment group 5-10, the test compound was administered once daily for 30 days.
(§9) Statistical significance was evaluated by comparing the vehicle group to the test group using a two tailed Students t test. The term “NC” means that the P value for the treatment group indicated was not calculated. The lack of such calculation is not intended to imply a belief that the activity of the compound is not otherwise statistically significant in this particular cell line or in any other cell line not tested.
Background: A xenograft is tissue or cells of one species grown in another, often human tumour cells in immunodeficient mice.

A further experiment has as its target T2, HER-2 (Homo sapiens, UniProt P04626).
T2 construct: purchased Proqinase (Freiburg, Germany)
Nature of the experiment: HER-2 Kinase Assay.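 Further: HER2 kinase reaction read by scintillation counting, inhibition scaled between maximum and minimum signals set on each plate, IC50 from inhibition against log concentration.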 Type of experiment: biochemical. Conditions: read-out: HER2 IC50.

For experiment [4], the system named is A431 epidermoid carcinoma. Nature of the experiment: In vitro cell proliferation inhibition, A431. Type of experiment: cell-based. Conditions: Homo sapiens, A-431; A431 cells, 14C-thymidine incorporation; read-out: IC50 A431.
Text: as §1, §2, §3, §4, §5, §6, §7, §8

The next experiment deals with BT474 breast carcinoma. Nature of the experiment: In vitro cell proliferation inhibition, BT474. The note with it: Homo sapiens, BT-474; BT474 cells, 14C-thymidine incorporation; read-out: IC50 BT474. Type of experiment: cell-based.
Text: as §1, §2, §3, §4, §5, §6, §7, §8

Experiment [5] concerns N87 gastric carcinoma cells. Nature of the experiment: N87 Human Tumor Xenograft Model. Conditions: treatment groups 5-10, 100 mg/kg oral once daily for 30 days. Type of experiment: in vivo, nu/nu mice.
Text: The N87 gastric carcinoma cell line overexpresses HER-2 as a result of gene amplification and forms tumors in nude mice (Kasprzyk P G, Song S U, Di Fiore P P, King C R, Therapy of an animal model of human gastric cancer using a combination of anti-erbB-2 monoclonal antibodies, Cancer Res., 1992, 52, 2771-2776).
Female nu/nu mice (Charles River; 8 to 9 weeks of age) were implanted subcutaneously with from 3×10^6 to 5×10^6 N87 gastric carcinoma cells (obtained from the American Type Culture Collection, ATCC Cat. #CRL-5822) in the flank. Animals were weighed twice weekly during the study and examined frequently.
Tumor size was monitored twice weekly and then daily as the neoplasms reached the target weight range (about 75 mg). Animals were pair-matched when tumors were in the 62 to 126 mg range (group mean tumor size: 70 to 74 mg). Estimated tumor weight was calculated using the formula: […]
A test compound was orally administered daily in the test treatment group after the tumor reached the target weight. For treatment group 1, the test compound was administered once daily for 35 days. For treatment group 2, the test compound was administered once daily for 30 days. For treatment group 3, each dose of test compound was administered once daily for 30 days. For treatment group 4, each dose of test compound was administered once daily for 36 days. For treatment group 5-10, the test compound was administered once daily for 30 days.
Tumor weight was measured daily for subjects (n=8) in the test group and the matched subjects (n=8) in the vehicle-treated group.
The tumor growth inhibition (in percent) was calculated on the last day of the study using the formula: […]
as §9

Experiment [6] concerns HeLa cervical adenocarcinoma. Nature of the experiment: In vitro cell proliferation inhibition, HeLa. Type of experiment: cell-based. Conditions: Homo sapiens; HeLa cell line; ATP-Lite method or C14 thymidine method; read-out: HeLa IC50.

T2 sequence (P04626 679-1255): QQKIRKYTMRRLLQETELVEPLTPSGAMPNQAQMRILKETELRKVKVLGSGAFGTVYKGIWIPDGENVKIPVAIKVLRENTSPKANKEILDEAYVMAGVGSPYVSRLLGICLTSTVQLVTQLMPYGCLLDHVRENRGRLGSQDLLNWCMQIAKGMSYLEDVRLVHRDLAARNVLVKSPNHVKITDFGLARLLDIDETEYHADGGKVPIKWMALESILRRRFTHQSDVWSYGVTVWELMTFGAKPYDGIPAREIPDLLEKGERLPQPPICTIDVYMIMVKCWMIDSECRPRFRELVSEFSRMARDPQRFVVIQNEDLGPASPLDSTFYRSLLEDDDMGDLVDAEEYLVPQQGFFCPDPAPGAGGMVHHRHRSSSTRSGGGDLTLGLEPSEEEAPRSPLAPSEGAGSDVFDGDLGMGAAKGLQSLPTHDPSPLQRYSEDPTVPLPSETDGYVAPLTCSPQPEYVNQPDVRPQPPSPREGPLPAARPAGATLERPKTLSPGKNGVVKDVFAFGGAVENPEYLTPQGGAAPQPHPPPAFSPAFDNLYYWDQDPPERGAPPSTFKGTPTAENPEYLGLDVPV
T1 sequence (P00533 669-1210 limits assumed): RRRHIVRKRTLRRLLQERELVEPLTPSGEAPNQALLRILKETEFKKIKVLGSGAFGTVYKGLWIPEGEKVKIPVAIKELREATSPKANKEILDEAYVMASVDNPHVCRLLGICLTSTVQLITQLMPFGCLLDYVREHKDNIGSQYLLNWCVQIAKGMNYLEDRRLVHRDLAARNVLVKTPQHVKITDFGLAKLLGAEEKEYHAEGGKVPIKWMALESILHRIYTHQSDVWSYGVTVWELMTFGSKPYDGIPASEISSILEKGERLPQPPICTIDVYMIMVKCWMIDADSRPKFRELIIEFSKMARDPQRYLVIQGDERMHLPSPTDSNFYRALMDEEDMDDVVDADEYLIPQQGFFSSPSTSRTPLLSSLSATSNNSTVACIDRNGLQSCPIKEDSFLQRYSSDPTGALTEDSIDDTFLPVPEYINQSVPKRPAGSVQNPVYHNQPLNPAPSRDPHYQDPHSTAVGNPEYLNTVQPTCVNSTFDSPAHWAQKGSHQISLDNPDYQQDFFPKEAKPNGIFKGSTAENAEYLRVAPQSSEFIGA

With `Nc1ncnc(Nc2ccc(OCc3cccc(F)c3)c(Cl)c2)c1/C=N/OCCN1CCOCC1` [Cpd 93, (5E)-4-amino-6-[3-chloro-4-(3-fluoro-benzyloxy)-phenylamino]-pyrimidine-5-carbaldehyde O-(2-morpholin-4-yl-ethyl)-oxime], the IC50 stood at 20 nM at EGFR; 100000 nM in [1]; 100000 nM in the experiment on MCF-7 breast carcinoma; 70 nM in experiment [2]; 20 nM with SKBR3 breast carcinoma; 8 nM on HER-2. Further, the concentration for half-maximal inhibition (IC50) in experiment [4] is 600 nM; with BT474 breast carcinoma, 40 nM; in experiment [6], 22100 nM. Also, the “A431 Tumor Growth Inhibition TGI” value in experiment [3] is 64.0%. The “N87 Tumor Growth Inhibition TGI” value in [5] is listed as 59.9%.
For `Nc1ncnc(Nc2ccc(OCc3cccc(F)c3)c(Cl)c2)c1/C=N/OCCN1CCCCC1` [Cpd 94, (5E)-4-amino-6-[3-chloro-4-(3-fluoro-benzyloxy)-phenylamino]-pyrimidine-5-carbaldehyde O-(2-piperidin-1-yl-ethyl)-oxime], the IC50 turned out to be 20 nM at EGFR; 1000 nM in experiment [1]; 1000 nM with MCF-7 breast carcinoma; 400 nM in [2]; 500 nM with SKBR3 breast carcinoma; 40 nM at HER-2. In addition, the values for the IC50 (in the experiment on BT474 breast carcinoma; in experiment [6]) were 500 nM and 6100 nM, respectively. The “A431 Tumor Growth Inhibition TGI” value in experiment [3] came out at 66%. The “N87 Tumor Growth Inhibition TGI” value in experiment [5] was determined as 47.1%.
As for `Nc1ncnc(Nc2ccc3c(ccn3Cc3cccc(F)c3)c2)c1/C=N/OCCN1CCOCC1` [Cpd 101, (5E)-4-amino-6-[1-(3-fluoro-benzyl)-1H-indol-5-ylamino]-pyrimidine-5-carbaldehyde O-(2-morpholin-4-yl-ethyl)-oxime], the IC50 worked out at 30 nM in [2]; 60 nM with SKBR3 breast carcinoma; 60 nM on HER-2; 9 nM in experiment [4]; 50 nM with BT474 breast carcinoma; 25100 nM in experiment [6]. The “A431 Tumor Growth Inhibition TGI” value in [3] is 51%. Further, the “N87 Tumor Growth Inhibition TGI” value in [5] was found to be 66%.
As to `Nc1ncnc(Nc2ccc(OCc3ccccc3)c(Cl)c2)c1/C=N/OCCCN1CCOCC1` [Cpd 112, (5E)-4-amino-6-(4-benzyloxy-3-chloro-phenylamino)-pyrimidine-5-carbaldehyde O-(3-morpholin-4-yl-propyl)-oxime], the IC50 against EGFR is 20 nM. For the same compound, the “A431 Tumor Growth Inhibition TGI” value in [3] is given as 33%. The “N87 Tumor Growth Inhibition TGI” value in [5] stood at 48.6%.
`Nc1ncnc(Nc2ccc(OCc3ccccc3)c(Cl)c2)c1/C=N/OCc1ccccn1` [Cpd 114, (5E)-4-amino-6-(4-benzyloxy-3-chloro-phenylamino)-pyrimidine-5-carbaldehyde O-pyridin-2-ylmethyl-oxime]: in experiment [3], the “A431 Tumor Growth Inhibition TGI” value is given as −3%. The “N87 Tumor Growth Inhibition TGI” value in experiment [5] amounted to 47%.
Taken in the same sequence, the figures for `COCCNCCCO/N=C/c1c(N)ncnc1Nc1ccc(OCc2ccccc2)c(Cl)c1` [Cpd 115, (5E)-4-amino-6-(4-benzyloxy-3-chloro-phenylamino)-pyrimidine-5-carbaldehyde O-[3-(2-methoxy-ethylamino)-propyl]-oxime] were 4% and 50.2%.
